The values below come from ChEMBL document CHEMBL1158544, “The evaluation of quinonoid compounds against Trypanosoma cruzi: synthesis of imidazolic anthraquinones, nor-beta-lapachone derivatives and beta-lapachone-based 1,2,3-triazoles” (Bioorg Med Chem, 2010).

The first assay deals with Trypanosoma cruzi. As to the kind of experiment: Antitrypanosomal activity against Trypanosoma cruzi Y blood stream trypomastigotes after 24 hrs. The format is functional, organism-based.
The term IC50 denotes the concentration at which inhibition is half-maximal. A higher IC50 goes with lower potency. In the case of `CC1(C)OC2=C(C(=O)C(=O)c3ccccc32)C1Nc1ccccc1[N+](=O)[O-]` (configuration not stated), the IC50 turned out to be 55.6 µM. This lies in the double-digit micromolar range.

As for `CC1(C)OC2=C(C(=O)C(=O)c3ccccc32)[C@H](n2cc(-c3ccc(Br)cc3)nn2)[C@H]1Br`, the IC50 amounted to 440 µM.

Take `CC1(C)OC2=C(C(=O)C(=O)c3ccccc32)C1Nc1ccc(Br)cc1Br` (configuration not stated): inhibition was half-maximal at 24.9 µM (IC50).

The molecule `CC(C)COC1C2=C(OC1(C)C)c1ccccc1C(=O)C2=O` (configuration not stated) registered an IC50 of 47.2 µM. Against the preceding molecule, the IC50 is about 1.9-fold higher.

In the case of `CC1(C)OC2=C(C(=O)C(=O)c3ccccc32)[C@H](n2cc(-c3ccccc3)nn2)[C@H]1Br`, the IC50 was 313 µM.

With `CC1(C)OC2=C(C(=O)C(=O)c3ccccc32)C1OC1CCCCC1` (configuration not stated), it took 558 µM to reach half-maximal inhibition (IC50).

`CC1(C)OC2=C(C(=O)C(=O)c3ccccc32)C1Nc1ccc(Cl)c(Cl)c1` (configuration not stated) showed an IC50 of 43.8 µM.

In turn, `CC1(C)OC2=C(C(=O)C(=O)c3ccccc32)[C@H](N=[N+]=[N-])[C@H]1Br` returned a half-inhibitory concentration (IC50) of 23.4 µM.

In turn, `CC1(C)CCC2=C(O1)c1ccccc1C(=O)C2=O` [LAPACHONE] showed an IC50 of 392 µM.

For `CC1(C)CC2=C(O1)c1ccccc1C(=O)C2=O` [NOR-BETA-LAPACHONE], the IC50 was over 4800 µM.

`O=C1c2ccccc2C(=O)c2c1ccc1nc(-c3ccccc3)[nH]c21` had an IC50 of over 2000 µM.

On to `CC1(C)OC2=C(C(=O)c3ccccc3C2=O)[C@@H](N=[N+]=[N-])[C@@H]1Br`, for which the IC50 is 248 µM.

In the case of `COc1ccc(-c2cn([C@H]3C4=C(OC(C)(C)[C@@H]3Br)c3ccccc3C(=O)C4=O)nn2)cc1`, the IC50 stood at 106 µM.

Molecule `O=C1c2ccccc2C(=O)c2c1ccc1nc(-c3cccc4ccccc34)[nH]c21` yielded a 50% inhibitory concentration (IC50) of over 4000 µM.

`CC(C)=CCC1=C(OC2(CC=C(C)C)C(=O)C(=O)c3ccccc3C2=O)C(=O)c2ccccc2C1=O` (configuration not stated) returned an IC50 of 233 µM.

As to `CC(C)OC1C2=C(OC1(C)C)c1ccccc1C(=O)C2=O` (configuration not stated), half-maximal inhibition (IC50) required 268 µM.

Molecule `COc1ccc(NC2C3=C(OC2(C)C)c2ccccc2C(=O)C3=O)c([N+](=O)[O-])c1` (configuration not stated) gave an IC50 of 59.6 µM.

In turn, `O=C1c2ccccc2C(=O)c2c1ccc1nc(-c3ccc(-c4ccccc4)cc3)[nH]c21` came in with an IC50 of over 4000 µM.

`Cc1ccc([N+](=O)[O-])cc1NC1C2=C(OC1(C)C)c1ccccc1C(=O)C2=O` (configuration not stated): the midpoint of inhibition, the IC50, lay at 284 µM.

For `Cc1cc([N+](=O)[O-])ccc1NC1C2=C(OC1(C)C)c1ccccc1C(=O)C2=O` (configuration not stated), it took 156 µM to reach half-maximal inhibition (IC50). Compared with the last molecule, the IC50 is about 1.8-fold lower.

With `Cc1ccc(-c2nc3ccc4c(c3[nH]2)C(=O)c2ccccc2C4=O)cc1`, the IC50 is over 4000 µM.

Regarding `CC1(C)OC2=C(C(=O)C(=O)c3ccccc32)[C@H](n2cc(-c3ccc(F)cc3)nn2)[C@H]1Br`, inhibition was half-maximal at 220 µM (IC50).

In the case of `CC1(C)OC2=C(C(=O)C(=O)c3ccccc32)C1Nc1ccc(F)c([N+](=O)[O-])c1` (configuration not stated), the midpoint of inhibition, the IC50, lay at 526 µM. This IC50 is about 2.4-fold higher than that of the molecule before.

The test system of another assay is PBMC. As to the kind of experiment: Cytotoxicity against human PBMC after 72 hrs by alamar blue assay. It counts as cell-based.
The molecule `CC(C)=CCC1=C(O)C(=O)c2ccccc2C1=O` [LAPACHOL] returned an IC50 of 2100 nM.

Molecule `CC1(C)OC2=C(C(=O)C(=O)c3ccccc32)C1Nc1ccccc1[N+](=O)[O-]` (configuration not stated) came in with an IC50 of 2100 nM. This lies in the single-digit micromolar range.

Molecule `CC1(C)OC2=C(C(=O)C(=O)c3ccccc32)[C@H](n2cc(-c3ccc(Br)cc3)nn2)[C@H]1Br` yielded an IC50 of 2100 nM.

In the case of `CC1(C)OC2=C(C(=O)C(=O)c3ccccc32)C1Nc1ccc(Br)cc1Br` (configuration not stated), the midpoint of inhibition, the IC50, lay at 2100 nM.

The molecule `CC(C)COC1C2=C(OC1(C)C)c1ccccc1C(=O)C2=O` (configuration not stated) returned a half-inhibitory concentration (IC50) of 2100 nM. In other words, the single-digit micromolar range.

Molecule `CC1(C)OC2=C(C(=O)C(=O)c3ccccc32)[C@H](n2cc(-c3ccccc3)nn2)[C@H]1Br` gave an IC50 of 2100 nM.

`CC1(C)OC2=C(C(=O)C(=O)c3ccccc32)C1OC1CCCCC1` (configuration not stated) gave an IC50 of 2100 nM.

Turning to `CC1(C)OC2=C(C(=O)C(=O)c3ccccc32)C1Nc1ccc(Cl)c(Cl)c1` (configuration not stated), the IC50 was 2100 nM.

As for `CC1(C)OC2=C(C(=O)C(=O)c3ccccc32)[C@H](N=[N+]=[N-])[C@H]1Br`, the IC50 is 2100 nM.

As to `CC1(C)CCC2=C(O1)c1ccccc1C(=O)C2=O` [LAPACHONE], the IC50 is 2100 nM. In other words, the single-digit micromolar range.

Molecule `CC(C)=CC1=C(O)C(=O)c2ccccc2C1=O` registered an IC50 of 2100 nM.

Regarding `CC1(C)CC2=C(O1)c1ccccc1C(=O)C2=O` [NOR-BETA-LAPACHONE], half-maximal inhibition (IC50) was put at 2100 nM.

Turning to `O=C1c2ccccc2C(=O)c2c1ccc1nc(-c3ccccc3)[nH]c21`, half-maximal inhibition (IC50) required 12000 nM.

In the case of `CC1(C)OC2=C(C(=O)c3ccccc3C2=O)[C@@H](N=[N+]=[N-])[C@@H]1Br`, the IC50 turned out to be 2100 nM. This IC50 is about 5.7-fold lower than that of the molecule before.

For the molecule `COc1ccc(-c2cn([C@H]3C4=C(OC(C)(C)[C@@H]3Br)c3ccccc3C(=O)C4=O)nn2)cc1`, the midpoint of inhibition, the IC50, lay at 2100 nM.

The molecule `O=C1c2ccccc2C(=O)c2c1ccc1nc(-c3cccc4ccccc34)[nH]c21` registered a half-inhibitory concentration (IC50) of 2100 nM.

As to `CC(C)=CCC1=C(OC2(CC=C(C)C)C(=O)C(=O)c3ccccc3C2=O)C(=O)c2ccccc2C1=O` (configuration not stated), half-maximal inhibition (IC50) was put at 12000 nM.

Molecule `CC(C)OC1C2=C(OC1(C)C)c1ccccc1C(=O)C2=O` (configuration not stated) yielded an IC50 of 2100 nM.

Regarding `COc1ccc(NC2C3=C(OC2(C)C)c2ccccc2C(=O)C3=O)c([N+](=O)[O-])c1` (configuration not stated), the IC50 amounted to 2100 nM.

In turn, `O=C1c2ccccc2C(=O)c2c1ccc1nc(-c3ccc(-c4ccccc4)cc3)[nH]c21` had an IC50 of 12000 nM.

Molecule `Cc1ccc([N+](=O)[O-])cc1NC1C2=C(OC1(C)C)c1ccccc1C(=O)C2=O` (configuration not stated) yielded an IC50 of 12000 nM.

`Cc1cc([N+](=O)[O-])ccc1NC1C2=C(OC1(C)C)c1ccccc1C(=O)C2=O` (configuration not stated) had an IC50 of 2100 nM.

Take `Cc1ccc(-c2nc3ccc4c(c3[nH]2)C(=O)c2ccccc2C4=O)cc1`: the IC50 was 12000 nM.

The molecule `CC1(C)OC2=C(C(=O)C(=O)c3ccccc32)[C@H](n2cc(-c3ccc(F)cc3)nn2)[C@H]1Br` displayed an IC50 of 2100 nM.
